Reference: PubChem BioAssay AID330 (DTP/NCI, 2004)
Values joined by “and” are separate entries in the source; they are usually repeats but may differ in a detail not shown here. Equal values may be shown once. Inconclusive results and toxic doses are left out.

Tested on: P388 leukemia ip, CD2F1 mice, survival T/C
Assay: NCI In Vivo Anticancer Drug Screen. Data for tumor model P388 Leukemia (intraperitoneal) in CD2F1 (CDF1) mice
Conditions: endpoint: median survival time, higher = longer survival
Method in brief: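 Mice carrying the transplanted tumor received test compound or vehicle. Survival was recorded in each group, and the value is the treated-group measurement divided by that of the vehicle-treated control group.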

[1] = dose: 50.0 mg/kg/injection, schedule: Q01DX009 (ip), vehicle: saline with Tween-80
[2] = dose: 100.0 mg/kg/injection, schedule: Q01DX009 (ip), vehicle: saline with Tween-80
[3] = dose: 100.0 mg/kg/injection, schedule: Q04DX003 (ip), vehicle: saline with Tween-80
[4] = dose: 200.0 mg/kg/injection, schedule: Q04DX003 (ip), vehicle: saline with Tween-80
[5] = dose: 400.0 mg/kg/injection, schedule: Q04DX003 (ip), vehicle: saline with Tween-80
[6] = dose: 50.0 mg/kg/injection, schedule: Q01DX009 (ip), vehicle: Klucel (hydroxypropylcellulose) (HPC)
[7] = dose: 100.0 mg/kg/injection, schedule: Q01DX005 (ip), vehicle: saline with Tween-80
[8] = dose: 60.0 mg/kg/injection, schedule: Q01DX005 (ip), vehicle: saline with Tween-80
[9] = dose: 120.0 mg/kg/injection, schedule: Q01DX005 (ip), vehicle: saline with Tween-80
[10] = dose: 100.0 mg/kg/injection, schedule: Q01DX001 (ip), vehicle: saline with Tween-80
[11] = dose: 200.0 mg/kg/injection, schedule: Q01DX001 (ip), vehicle: saline with Tween-80
[12] = dose: 100.0 mg/kg/injection, schedule: Q01DX009 (ip), vehicle: Klucel (hydroxypropylcellulose) (HPC)
[13] = dose: 200.0 mg/kg/injection, schedule: Q01DX009 (ip), vehicle: Klucel (hydroxypropylcellulose) (HPC)
[14] = dose: 60.0 mg/kg/injection, schedule: Q01DX005 (ip), vehicle: saline
[15] = dose: 120.0 mg/kg/injection, schedule: Q01DX005 (ip), vehicle: saline

Question: What does the source list for `C=C(C(=O)N(C(C)C)C(C)C)C(C)CC(C)C(=O)N(C(C)C)C(C)C` (centres undefined)?
Answer: T/C (dose: 50.0 mg/kg/injection, schedule: Q04DX002 (ip), vehicle: Klucel (hydroxypropylcellulose) (HPC)): 99 % of control; T/C (dose: 100.0 mg/kg/injection, schedule: Q04DX002 (ip), vehicle: Klucel (hydroxypropylcellulose) (HPC)): 104 % of control; T/C (dose: 200.0 mg/kg/injection, schedule: Q04DX002 (ip), vehicle: Klucel (hydroxypropylcellulose) (HPC)): 107 % of control; T/C (dose: 400.0 mg/kg/injection, schedule: Q04DX002 (ip), vehicle: Klucel (hydroxypropylcellulose) (HPC)): 104 % of control

Question: `Nc1cc2c(cc1Br)-c1ccccc1C2=O` was tested. Which T/C [1] did it give?
Answer: 96 % of control

Question: And the T/C [2]?
Answer: 97 % of control

Question: What about the T/C (dose: 200.0 mg/kg/injection, schedule: Q01DX009 (ip), vehicle: saline with Tween-80) of the same molecule?
Answer: 90 % of control

Question: How did the T/C [3] turn out when `Cc1cc2ncn(C(=O)Nc3ccccc3)c2cc1C` was run?
Answer: 100 % of control

Question: What about the T/C [4] of the same molecule?
Answer: 90 % of control

Question: What about the T/C [5] of the same molecule?
Answer: 90 % of control

Question: Which results are given for `Cc1ccc(C)[nH][nH]c(N)n1`?
Answer: T/C (dose: 25.0 mg/kg/injection, schedule: Q01DX009 (ip), vehicle: water): 99 % of control; T/C (dose: 50.0 mg/kg/injection, schedule: Q01DX009 (ip), vehicle: water): 101 % of control; T/C (dose: 100.0 mg/kg/injection, schedule: Q01DX009 (ip), vehicle: water): 101 % of control

Question: `NC(CSc1nc2ccccn2c1[N+](=O)[O-])C(=O)O` (centres undefined) was tested. Which T/C (dose: 12.5 mg/kg/injection, schedule: Q01DX009 (ip), vehicle: Klucel (hydroxypropylcellulose) (HPC)) did it give?
Answer: 98 % of control

Question: And the T/C (dose: 25.0 mg/kg/injection, schedule: Q01DX009 (ip), vehicle: Klucel (hydroxypropylcellulose) (HPC))?
Answer: 100 % of control

Question: And the T/C [6]?
Answer: 99 % of control and 100 % of control

Question: What does the source list for `C=CCc1cccc2cc(C(=O)OCCCN(CC)CC)c(=O)oc12`?
Answer: T/C (dose: 50.0 mg/kg/injection, schedule: Q01DX005 (ip), vehicle: saline with Tween-80): 95 % of control; T/C [7]: 99 % of control

Question: `CS/C(=C/c1ccc2ccccc2[n+]1C)N1CCN(C)CC1` was tested. Which T/C (dose: 6.25 mg/kg/injection, schedule: Q01DX005 (ip), vehicle: saline) did it give?
Answer: 99 % of control

Question: What about the T/C (dose: 12.5 mg/kg/injection, schedule: Q01DX005 (ip), vehicle: saline) of the same molecule?
Answer: 98 % of control

Question: What about the T/C (dose: 25.0 mg/kg/injection, schedule: Q01DX005 (ip), vehicle: saline) of the same molecule?
Answer: 102 % of control

Question: `O=C(O)CCC(=O)c1ccc(Br)cc1` was tested. Which T/C [3] did it give?
Answer: 109 % of control

Question: And the T/C [4]?
Answer: 104 % of control

Question: And the T/C [5]?
Answer: 109 % of control

Question: Which T/C [8] does the source give for `CCOC(=O)c1c(C)c(C(C)=O)c2ccccn12` here?
Answer: 104 % of control

Question: What about the T/C [9] of the same molecule?
Answer: 119 % of control

Question: What about the T/C (dose: 240.0 mg/kg/injection, schedule: Q01DX005 (ip), vehicle: saline with Tween-80) of the same molecule?
Answer: 105 % of control

Question: What does the source list for `COC(=O)CC(OC1CC(N)C(O)C(C)O1)c1c(O)c2c(c(O)c1CO)C(=O)c1cccc(OC)c1C2=O` (centres undefined)?
Answer: T/C (dose: 100.0 mg/kg/injection, schedule: Q04DX003 (ip), vehicle: water): 105 % of control; T/C (dose: 200.0 mg/kg/injection, schedule: Q04DX003 (ip), vehicle: water): 121 % of control

Question: How did the T/C (dose: 50.0 mg/kg/injection, schedule: Q01DX005 (ip), vehicle: Klucel (hydroxypropylcellulose) (HPC)) turn out when `CN(C)c1ccc(C=NCCC[Si]23OCCN(CCO2)CCO3)cc1` was run?
Answer: 106 % of control

Question: And the T/C (dose: 100.0 mg/kg/injection, schedule: Q01DX005 (ip), vehicle: Klucel (hydroxypropylcellulose) (HPC))?
Answer: 100 % of control

Question: And the T/C (dose: 200.0 mg/kg/injection, schedule: Q01DX005 (ip), vehicle: Klucel (hydroxypropylcellulose) (HPC))?
Answer: 111 % of control

Question: `CC([NH-])C[NH-].[Br][Pt+2][Br]` (centres undefined) was tested. Which T/C (dose: 12.5 mg/kg/injection, schedule: Q04DX002 (ip), vehicle: saline with Tween-80) did it give?
Answer: 158 % of control

Question: What about the T/C (dose: 25.0 mg/kg/injection, schedule: Q04DX002 (ip), vehicle: saline with Tween-80) of the same molecule?
Answer: 174 % of control

Question: Which results are given for `CC(=O)OC1CC(C)(O)Cc2cc3c(c(O)c21)C(=O)c1c(O)cc2c(c1C3=O)OC1OC2(C)C(O)C(N(C)C)C1O` (centres undefined)?
Answer: T/C (dose: 3.5 mg/kg/injection, schedule: Q01DX009 (ip), vehicle: other): 153 % of control; T/C (dose: 7.0 mg/kg/injection, schedule: Q01DX009 (ip), vehicle: other): 166 % of control; T/C (dose: 14.0 mg/kg/injection, schedule: Q01DX009 (ip), vehicle: other): 167 % of control

Question: For `COc1ccc(NCC(=O)O)c([N+](=O)[O-])c1`, which T/C [10] is on record?
Answer: 100 % of control

Question: And the T/C [11]?
Answer: 109 % of control

Question: And the T/C (dose: 400.0 mg/kg/injection, schedule: Q01DX001 (ip), vehicle: saline with Tween-80)?
Answer: 109 % of control

Question: `C[n+]1cc2c3ccccc3ccc2c2ccccc21` was tested. Which T/C (dose: 12.5 mg/kg/injection, schedule: Q04DX003 (ip), vehicle: distilled water + Tween-80) did it give?
Answer: 113 % of control

Question: And the T/C (dose: 25.0 mg/kg/injection, schedule: Q04DX003 (ip), vehicle: distilled water + Tween-80)?
Answer: 105 % of control

Question: Which results are given for `OC1CN(C(c2ccccc2)c2ccccc2)C1`?
Answer: T/C [6]: 100 % of control; T/C [12]: 108 % of control; T/C [13]: 104 % of control

Question: `CCN(CC)C(=O)CC(c1ccccc1)N(C)C` (centres undefined) was tested. Which T/C [14] did it give?
Answer: 98 % of control

Question: What about the T/C [15] of the same molecule?
Answer: 87 % of control

Question: How did the T/C [8] turn out when `COc1cc(/C=N/N2CN(C(C)C(=O)O)B(NCCC(C)C)N=C2N)cc(OC)c1` (centres undefined) was run?
Answer: 104 % of control

Question: And the T/C [9]?
Answer: 111 % of control

Question: Which results are given for `CS(=O)(=O)OCCCl`?
Answer: T/C (dose: 25.0 mg/kg/injection, schedule: Q01DX009 (ip), vehicle: saline with Tween-80): 105 % of control and 108 % of control; T/C [1]: 107 % of control and 112 % of control; T/C (dose: 75.0 mg/kg/injection, schedule: Q01DX005 (ip), vehicle: saline with Tween-80): 113 % of control and 86 % of control; T/C (dose: 75.0 mg/kg/injection, schedule: Q01DX009 (ip), vehicle: saline with Tween-80): 102 % of control; T/C [10]: 100 % of control; T/C [7]: 114 % of control and 94 % of control; T/C [2]: 111 % of control; T/C [11]: 110 % of control

Question: What does the source list for `O=C1CCC2CN3CCc4c([nH]c5ccccc45)C3CC2C1` (centres undefined)?
Answer: T/C [8]: 100 % of control; T/C [9]: 106 % of control

Question: Which T/C (dose: 100.0 mg/kg/injection, schedule: Q04DX002 (ip), vehicle: saline) does the source give for `CN1C=CC2C(C(=O)O)CC2C1=O` (centres undefined) here?
Answer: 99 % of control

Question: What about the T/C (dose: 200.0 mg/kg/injection, schedule: Q04DX002 (ip), vehicle: saline) of the same molecule?
Answer: 115 % of control

Question: What about the T/C (dose: 400.0 mg/kg/injection, schedule: Q04DX002 (ip), vehicle: saline) of the same molecule?
Answer: 109 % of control

Question: How did the T/C (dose: 25.0 mg/kg/injection, schedule: Q01DX005 (ip), vehicle: water) turn out when `CCN(CC)CCNc1ccc(COC(=O)NC)c2oc3ccc(OS(=O)(=O)c4ccc(C)cc4)cc3c(=O)c12` was run?
Answer: 89 % of control

Question: What about the T/C (dose: 50.0 mg/kg/injection, schedule: Q01DX005 (ip), vehicle: water) of the same molecule?
Answer: 93 % of control

Question: And the T/C (dose: 100.0 mg/kg/injection, schedule: Q01DX005 (ip), vehicle: water)?
Answer: 90 % of control

Question: What about the T/C (dose: 200.0 mg/kg/injection, schedule: Q01DX005 (ip), vehicle: water) of the same molecule?
Answer: 93 % of control

Question: For `CCOC(=O)NC(NC(=O)OCC)c1cccnc1`, which T/C (dose: 200.0 mg/kg/injection, schedule: Q04DX003 (ip), vehicle: saline) is on record?
Answer: 94 % of control

Question: And the T/C (dose: 400.0 mg/kg/injection, schedule: Q04DX003 (ip), vehicle: saline)?
Answer: 101 % of control

Question: What does the source list for `COc1ccc(-c2c3c(cc4cc5c(cc24)OCO5)C(=O)OC3)cc1OC`?
Answer: T/C (dose: 12.0 mg/kg/injection, schedule: Q01DX009 (ip), vehicle: Klucel (hydroxypropylcellulose) (HPC)): 110 % of control; T/C (dose: 24.0 mg/kg/injection, schedule: Q01DX009 (ip), vehicle: Klucel (hydroxypropylcellulose) (HPC)): 91 % of control; T/C (dose: 48.0 mg/kg/injection, schedule: Q01DX009 (ip), vehicle: Klucel (hydroxypropylcellulose) (HPC)): 86 % of control; T/C (dose: 96.0 mg/kg/injection, schedule: Q01DX009 (ip), vehicle: Klucel (hydroxypropylcellulose) (HPC)): 88 % of control

Question: Which results are given for `CC(C)(F)C(N)C(=O)O` (centres undefined)?
Answer: T/C [14]: 101 % of control; T/C [15]: 103 % of control; T/C (dose: 240.0 mg/kg/injection, schedule: Q01DX005 (ip), vehicle: saline): 100 % of control

Question: How did the T/C (dose: 50.0 mg/kg/injection, schedule: Q01DX009 (ip), vehicle: saline) turn out when `CCN(CC)CCCNc1c(OC)cc(C)c2sc3ccccc3c(=O)c12` was run?
Answer: 102 % of control

Question: How did the T/C [6] turn out when `CC(=O)N1c2ccccc2N(C(C)=O)c2nc3ccccc3nc21` was run?
Answer: 100 % of control

Question: What about the T/C [12] of the same molecule?
Answer: 100 % of control

Question: And the T/C [13]?
Answer: 100 % of control
